Read-outs that look alike come from different tables or passages of the source.
What was measured:
[1] = tested on: human α2β3γ2 GABAARs; experiment: In vitro electrophysiological recording assay (automated patch-clamp), α2-GABAAR relative efficacy; type: cell-based; settings: % efficacy normalised to diazepam; GABA EC10-20; concentration generally >= 100 times Ki
Procedure: The efficacy of modulators was evaluated using the automated patch-clamp platforms QPatch16 (Sophion, Copenhagen, Denmark) or SyncroPatch 384PE (Nanion, Germany).
For QPatch electrophysiology testing L(tk^−) cells stably expressing human α1β3γ2, α2β3γ2, α3β3γ2, α5β3γ2 GABAARs were used. HEK293 cells stably expressing human α1β3γ2L, α2β3γ2L, α3β3γ2L and α5β3γ2L GABAARs were used for the SyncroPatch 384PE experiments.
All experiments were carried out at room temperature (20-22° C.) using a standard whole cell procedure and physiological solutions. Gigaseals were formed upon execution of a combined suction/voltage protocol with subsequent increased suction leading to the whole-cell configuration.
The currents recorded were acquired at either 1 KHz or 2 KHz and filtered using a Bessel filter. Whole-cell currents were measured at a holding potential of-65 mV (QPatch) or −80 mV (SyncroPatch).
For QPatch experiments, the extracellular solution contained of: 145 mM NaCl, 4 mM KCl, 1 mM MgCl2, 2 mM CaCl2), 10 mM HEPES, 10 mM D-glucose (pH 7.4), and the intracellular solution consisted of: 96 mM KCl, 28 mM CsCl, 25 mM KOH, 4.3 mM CaCl2), 1.4 mM MgCl2, 10 mM EGTA, 10 mM HEPES, 3 mM MgATP (pH 7.2). The osmolarities of the extracellular and intracellular solutions were 305 and 295 mOsm respectively.
For SyncroPatch experiments, the extracellular recording solution contained: 140 mM NaCl, 4 mM KCl, 2 mM CaCl2), 1 mM MgCl2, 10 mM HEPES, 5 mM glucose (pH 7.4 with NaOH and osmolarity of c. 300-310 mOsm). The intracellular recording solution consisted of: 90 mM KCl, 50 mM KF, 1.5 mM MgCl2, 11.1 mM EGTA and 10 mM HEPES (pH 7.2 with KOH and osmolarity of c. 300 mOsm). 2 mM of NaATP was added to the intracellular solution on the day of testing.
The effects of modulators were evaluated in the presence of a submaximal GABA concentration, giving typically less than 30% activation of the response elicited by a saturating GABA concentration. To check and ensure baseline current stability before compound addition, two to five consecutive applications of GABA EC10-20 separated by wash steps were performed before compound addition. The test compound was applied 1 min at least prior to co-application with GABA EC10-20. Following a further wash step, a saturating concentration of GABA was applied at the end of each recording, allowing the accurate evaluation for each cell of the percentage baseline activation elicited by the submaximal GABA applied.
The compounds were first dissolved in DMSO as a 10 mM stock and then further diluted to the testing concentrations so that the final DMSO concentration in the extracellular recording solution was 0.1% (QPatch) or 0.2% (SyncroPatch).
The % efficacy of modulators was determined from the GABA elicited currents recorded in the presence and absence of the test compound, using the formula:
[((compound peak current−leak)−(GABA peak current-leak))/(GABA peak current−leak)]*100,
where ‘leak’ is the leak baseline current at the holding potential, ‘compound peak current’ is the current elicited by co-application of compound and GABA, and ‘GABA peak current’ is the current elicited by GABA alone at the last GABA application before compound addition. The results were presented as ‘relative efficacy’ for each compound generally at a concentration equal or higher than 100 times their determined Ki. The relative efficacy of a compound was calculated by normalising its % efficacy to the corresponding % efficacy of diazepam that was separately determined.

[2] = target: human α2β3γ2 GABAARs (benzodiazepine site) (Homo sapiens (Human), UniProt P18507+P47869); experiment: In vitro radioligand binding assay ([3H]Ro15-1788 displacement), α2-GABAAR Ki
Procedure: The affinity (Ki) of compounds for the benzodiazepine site of human recombinant GABAARs was measured by their ability to inhibit the binding of the selective benzodiazepine antagonist [^3H]Ro15-1788 ([^3H] flumazenil).
Mouse L(tk^−) cells stably expressing human α1β3γ2, α2β3γ2, α3β3γ2, α5β3γ2 GABAARs were generated by transfection of the individual subunits in the dexamethasone-inducible expression vector pMSGneo in mouse L(tk^−) cells (Hadingham et al., 1993, Mol. Pharmacol. 43:970-975 and 1993, Mol. Pharmacol. 44:1211-1218).
L(tk^−) cells stably expressing human α1β3γ2, α2β3γ2, α3β3γ2, α5β3γ2 GABAARs were maintained in DMEM F12 medium supplemented with 10% Foetal Bovine Serum, 1% Penicillin/Streptomycin and 1 mg/mL Geneticin G418 in an incubator at 37° C. with a humidified atmosphere with 5% CO2. Dexamethasone was added to the culture medium to induce GABAAR expression.
L(tk−) cells were harvested and membranes were prepared for each receptor combination in either TE buffer (10 mM Tris·CI/0.1 mM EDTA, pH 7.5) or phosphate buffer (K2PO4 10 mM, pH 7.0) (Hadingham et al. (1992) Proc. Natl. Acad. Sci. USA; 89 (14): 6378-82). Protein concentration, receptor expression and the Kd of [^3H]Ro15-1788 were determined before Ki value of the compounds were evaluated. For Kd evaluation, saturation binding curves were obtained by incubating membrane with various concentrations of [^3H]Ro15-1788 (82.5 Ci/mM), with nonspecific binding measured in the presence of 1-3 μM TP003.
For Ki evaluation, cell membranes were incubated with 4 nM [^3H]Ro15-1788 along with a range of concentrations of test compound. Nonspecific binding was determined using 1-3 μM TP003. All incubations were performed for 1 hour at 4° C. in assay buffer. The total assay volume was 0.5 mL, containing 40 μg/well α1β3γ2, 30 μg/well α2β3γ2, 40 μg/well α3β3γ2 and 30 μg/well for α5β3γ2 of membrane protein. Incubations were terminated by filtration and washing with ice cold Tris-HCl buffer (50 mM, pH=7.4) over Whatman GF/B filters and the radioactivity of the filters was measured using liquid scintillation counting.
The % inhibition of [^3H]Ro15-1788 binding was plotted as a function of compound concentration and the IC50 calculated. From the IC50, the affinity (Ki) was calculated using the method of Cheng and Prusoff using the Kd values obtained for [^3H]Ro15-1788.

human α2β3γ2 GABAARs (benzodiazepine site), sequence (P47869 29-451): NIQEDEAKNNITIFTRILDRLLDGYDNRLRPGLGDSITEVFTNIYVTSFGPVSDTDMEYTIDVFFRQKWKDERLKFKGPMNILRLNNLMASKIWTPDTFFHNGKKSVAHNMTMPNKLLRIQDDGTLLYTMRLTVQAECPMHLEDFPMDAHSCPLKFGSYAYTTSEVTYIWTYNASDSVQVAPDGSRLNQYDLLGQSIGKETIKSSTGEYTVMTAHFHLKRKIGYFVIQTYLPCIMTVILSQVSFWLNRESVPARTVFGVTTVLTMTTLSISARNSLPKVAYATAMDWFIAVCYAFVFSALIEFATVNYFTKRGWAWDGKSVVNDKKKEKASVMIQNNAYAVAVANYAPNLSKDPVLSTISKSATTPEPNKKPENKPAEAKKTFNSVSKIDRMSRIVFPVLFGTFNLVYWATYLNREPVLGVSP
human α2β3γ2 GABAARs (benzodiazepine site), sequence (P28472 26-473 partner): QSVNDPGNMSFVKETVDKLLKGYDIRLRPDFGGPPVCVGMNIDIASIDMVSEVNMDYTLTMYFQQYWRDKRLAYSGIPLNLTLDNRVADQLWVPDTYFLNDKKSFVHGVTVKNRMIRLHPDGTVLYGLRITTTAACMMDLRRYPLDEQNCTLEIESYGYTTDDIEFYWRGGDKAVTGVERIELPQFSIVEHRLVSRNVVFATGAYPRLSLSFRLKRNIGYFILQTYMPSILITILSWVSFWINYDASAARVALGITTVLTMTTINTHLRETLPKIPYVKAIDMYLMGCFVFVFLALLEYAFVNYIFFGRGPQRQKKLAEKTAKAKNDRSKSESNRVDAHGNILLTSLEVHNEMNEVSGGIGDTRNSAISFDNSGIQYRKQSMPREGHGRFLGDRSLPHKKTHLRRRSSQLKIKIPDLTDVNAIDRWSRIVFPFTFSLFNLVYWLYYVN
human α2β3γ2 GABAARs (benzodiazepine site), sequence (P18507 40-475): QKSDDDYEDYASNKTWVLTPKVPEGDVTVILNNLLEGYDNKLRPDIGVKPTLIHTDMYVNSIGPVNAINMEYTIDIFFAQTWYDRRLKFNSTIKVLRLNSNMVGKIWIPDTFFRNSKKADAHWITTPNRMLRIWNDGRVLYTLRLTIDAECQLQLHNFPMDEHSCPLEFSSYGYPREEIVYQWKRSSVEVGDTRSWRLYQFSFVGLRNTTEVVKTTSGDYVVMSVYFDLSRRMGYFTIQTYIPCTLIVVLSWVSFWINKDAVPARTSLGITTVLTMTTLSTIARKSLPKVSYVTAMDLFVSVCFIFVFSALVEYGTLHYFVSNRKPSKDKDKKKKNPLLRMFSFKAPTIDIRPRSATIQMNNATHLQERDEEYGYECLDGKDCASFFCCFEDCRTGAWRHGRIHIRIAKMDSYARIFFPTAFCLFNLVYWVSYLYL

How did the “α2-GABAAR Relative Efficacy (vs. Diazepam)” value (“α2-GABAAR Relative Efficacy” below) [1] turn out when CCCNC(=O)c1c(N)c2cccc(-c3cnccc3OCC)c2[nH]c1=O [Example 19, 4-Amino-8-(4-ethoxypyridin-3-yl)-2-oxo-N-propyl-1,2-dihydroquinoline-3-carboxamide] was run?
Its value is 0.23.

What about the Ki [2] of the same molecule?
Its Ki is 21.5 nM.

Which results are given for CCCNC(=O)c1c(N)c2cccc(-c3cnccc3OC(C)C)c2[nH]c1=O [Example 20, 4-Amino-8-(4-isopropoxypyridin-3-yl)-2-oxo-N-propyl-1,2-dihydroquinoline-3-carboxamide]?
α2-GABAAR Relative Efficacy (vs. Diazepam) [1]: 0.16; Ki ([2]; L(tk-) cell membranes, 4 nM [3H]Ro15-1788, read-out: α2-GABAAR Ki): 245 nM

How did the “α2-GABAAR Relative Efficacy” value [1] turn out when CCCNC(=O)c1c(N)c2cccc(-c3cnccc3COC)c2[nH]c1=O [Example 21, 4-Amino-8-(4-(methoxymethyl)pyridin-3-yl)-2-oxo-N-propyl-1,2-dihydroquinoline-3-carboxamide] was run?
The value was 0.12.

And the Ki [2]?
Its Ki is 29.8 nM.

Which results are given for CCCNC(=O)c1c(N)c2cccc(-c3cncc(F)c3)c2[nH]c1=O [Example 22, 4-Amino-8-(5-fluoro-3-pyridyl)-2-oxo-N-propyl-1H-quinoline-3-carboxamide]?
α2-GABAAR Relative Efficacy (vs. Diazepam) [1]: 0.19; Ki [2]: 13.6 nM

Which results are given for CCCNC(=O)c1c(N)c2cccc(-c3cncc(OC)c3C)c2[nH]c1=O [Example 24, 4-Amino-8-(5-methoxy-4-methylpyridin-3-yl)-2-oxo-N-propyl-1,2-dihydroquinoline-3-carboxamide]?
α2-GABAAR Relative Efficacy (vs. Diazepam) [1]: 0.21; Ki [2]: 4.11 nM

For CCCNC(=O)c1c(N)c2cccc(-c3cncc(OCC)c3)c2[nH]c1=O [Example 26, 4-Amino-8-(5-ethoxypyridin-3-yl)-2-oxo-N-propyl-1,2-dihydroquinoline-3-carboxamide], which “α2-GABAAR Relative Efficacy” value [1] is on record?
Its value is 0.15.

And the Ki [2]?
Its Ki is 5.58 nM.

For CCCNC(=O)c1c(N)c2cccc(-c3cncc(OC4CC4)c3)c2[nH]c1=O [Example 28, 4-Amino-8-(5-cyclopropoxypyridin-3-yl)-2-oxo-N-propyl-1,2-dihydroquinoline-3-carboxamide], which “α2-GABAAR Relative Efficacy” value [1] is on record?
The value was 0.2.

What about the Ki [2] of the same molecule?
Its Ki is 9.07 nM.

Which results are given for CCCNC(=O)c1c(N)c2cccc(-c3cncc(OCc4ccc(F)cn4)c3)c2[nH]c1=O [Example 29, 4-Amino-8-(5-((5-fluoropyridin-2-yl)methoxy)pyridin-3-yl)-2-oxo-N-propyl-1,2-dihydroquinoline-3-carboxamide]?
α2-GABAAR Relative Efficacy (vs. Diazepam) [1]: 0.22; Ki [2]: 6.66 nM

What does the source list for CCCNC(=O)c1c(N)c2cccc(-c3ccc(CO)nc3)c2[nH]c1=O [Example 30, 4-Amino-8-[6-(hydroxymethyl)-3-pyridyl]-2-oxo-N-propyl-1H-quinoline-3-carboxamide]?
α2-GABAAR Relative Efficacy (vs. Diazepam) [1]: 0.43; Ki [2]: 4.76 nM

How did the “α2-GABAAR Relative Efficacy” value [1] turn out when CCCNC(=O)c1c(N)c2cccc(-c3ccncc3)c2[nH]c1=O [Example 31, 4-Amino-2-oxo-N-propyl-8-(pyridin-4-yl)-1,2-dihydroquinoline-3-carboxamide] was run?
The value was 0.24.

And the Ki [2]?
The Ki was 3.28 nM.

CCCNC(=O)c1c(N)c2cccc(-c3cc(C)ncc3F)c2[nH]c1=O [Example 33, 4-Amino-8-(5-fluoro-2-methyl-4-pyridyl)-2-oxo-N-propyl-1H-quinoline-3-carboxamide] was tested. Which “α2-GABAAR Relative Efficacy” value [1] did it give?
The value was 0.39.

What about the Ki [2] of the same molecule?
The Ki was 0.67 nM.

CCCNC(=O)c1c(N)c2cccc(-c3cc(OCC)ncc3F)c2[nH]c1=O [Example 35, 4-Amino-8-(2-ethoxy-5-fluoropyridin-4-yl)-2-oxo-N-propyl-1,2-dihydroquinoline-3-carboxamide] was tested. Which “α2-GABAAR Relative Efficacy” value [1] did it give?
The value was 0.52.

What about the Ki [2] of the same molecule?
The Ki was 2.45 nM.

With CCCNC(=O)c1c(N)c2cccc(-c3ccncn3)c2[nH]c1=O [Example 36, 4-Amino-2-oxo-N-propyl-8-pyrimidin-4-yl-1H-quinoline-3-carboxamide] as the molecule, how does the “α2-GABAAR Relative Efficacy” value [1] read?
Its value is 0.05.

And the Ki [2]?
Its Ki is 3.69 nM.

With CCCNC(=O)c1c(N)c2cccc(-c3ncncc3OC)c2[nH]c1=O [Example 37, 4-Amino-8-(5-methoxypyrimidin-4-yl)-2-oxo-N-propyl-1H-quinoline-3-carboxamide] as the molecule, how does the “α2-GABAAR Relative Efficacy” value [1] read?
The value was 0.78.

And the Ki [2]?
The Ki was 7.55 nM.

CCCNC(=O)c1c(N)c2cccc(-c3ccnc(C)n3)c2[nH]c1=O [Example 38, 4-Amino-8-(2-methylpyrimidin-4-yl)-2-oxo-N-propyl-1,2-dihydroquinoline-3-carboxamide] was tested. Which “α2-GABAAR Relative Efficacy” value [1] did it give?
The value was 0.18.

What about the Ki [2] of the same molecule?
Its Ki is 1.09 nM.

How did the “α2-GABAAR Relative Efficacy” value [1] turn out when CCCNC(=O)c1c(N)c2cccc(-c3nc(C)ncc3C#N)c2[nH]c1=O [Example 39, 4-Amino-8-(5-cyano-2-methyl-pyrimidin-4-yl)-2-oxo-N-propyl-1H-quinoline-3-carboxamide] was run?
Its value is −0.06.

What about the Ki [2] of the same molecule?
The Ki was 9.31 nM.

Which results are given for CCCNC(=O)c1c(N)c2cccc(-c3nc(N)ncc3F)c2[nH]c1=O [Example 41, 4-Amino-8-(2-amino-5-fluoropyrimidin-4-yl)-2-oxo-N-propyl-1,2-dihydroquinoline-3-carboxamide]?
α2-GABAAR Relative Efficacy (vs. Diazepam) [1]: 0.13; Ki [2]: 0.4 nM

What does the source list for CCCNC(=O)c1c(N)c2cccc(-c3nc(OCCOC)ncc3F)c2[nH]c1=O [Example 43, 4-Amino-8-(5-fluoro-2-(2-methoxyethoxy)pyrimidin-4-yl)-2-oxo-N-propyl-1,2-dihydroquinoline-3-carboxamide]?
α2-GABAAR Relative Efficacy (vs. Diazepam) [1]: 0.14; Ki [2]: 1.47 nM

With CCCNC(=O)c1c(N)c2cccc(-c3cncnc3OC)c2[nH]c1=O [Example 44, 4-Amino-8-(4-methoxypyrimidin-5-yl)-2-oxo-N-propyl-1H-quinoline-3-carboxamide] as the molecule, how does the “α2-GABAAR Relative Efficacy” value [1] read?
Its value is 0.30.

What about the Ki [2] of the same molecule?
Its Ki is 18.6 nM.

Which results are given for CCCNC(=O)c1c(N)c2cccc(-c3cnccn3)c2[nH]c1=O [Example 45, 4-Amino-2-oxo-N-propyl-8-(pyrazin-2-yl)-1,2-dihydroquinoline-3-carboxamide]?
α2-GABAAR Relative Efficacy (vs. Diazepam) [1]: 0.11; Ki [2]: 5.04 nM

From patent US20250197368A1 (priority 2020, published 2025)
